# Results as given in patent US11839636B1, “Pharmaceutical composition based on plant raw materials: #2.1” (priority 2022, dated 2023).
# Tested on: malondialdehyde (MDA)
# Test: In vitro study of antioxidant effect (FeSO4-activated malondialdehyde in blood serum)
# Format: biochemical
# Details: 0.1 ml sample, 0.3 ml blood serum, FeSO4, 37° C. 15 min, MDA at 535 nm
# Procedure: Three samples were examined to evaluate antioxidant effectiveness. […] Method: evaluation was done by determining the intermediate product of the lipid oxidation process, malondialdehyde (MDA). Amount of MDA increases under the influence of ferrous sulfate (FeSO4), this moment was used as a model for the activated oxidation process. Sequence of analysis: 0.1 ml of test sample, 1 μmol of ferrous sulfate solution was added to 0.3 ml of blood serum and incubated at 37° C. for 15 min. Then 3 ml of 3% orthophosphoric acid and 1 ml of 0.6% thiobaric acid were added to the incubation mixture. The mixture was placed on a boiling water bath for one hour. Then 4 ml of butanol was added. The obtained mixture was centrifuged for 10 minutes at 3000 rpm. In the obtained supernatant, the optical density (E) was determined on a spectrometer on a wavelength of 535 nm. MDA concentration (C) was determined by the formula C=E×84.5 μmol/L. The difference between the background concentration of MDA and iron activated was 100%, while the antioxidant activity of the samples was conditionally expressed in %.
compound,measurement,value
O=C(O)CN(CCN(CC(=O)O)CC(=O)O)CC(=O)O [Ethylenediaminetetraacetate],Relative Antioxidant Activity in %,92%
